Results taken from patent US4175133A, “1,2-Diaminocyclohexane platinum (II) complexes having antineoplastic activity against L1210 leukemia” (priority 1977, dated 1979).
Where a name gives a salt, the structure may show the parent alone.

Tests used:
L1210 leukemia [1] = experiment: combination chemotherapy against L1210 leukemia in mice (10^6 L1210 cells ip, schedule A); type: in vivo; details: Yoshi-864 and cyclophosphamide 75 mg/kg each; for 60-day Survivors: out of 10, sulfato complex 4 mg/kg
L1210 leukemia [2] = experiment: antineoplastic activity against L1210 leukemia in mice, individual treatment (10^5 L1210 cells ip); type: in vivo; details: for % ILS: 10^5 cells; for Dose/Injection range found safe and effective for providing %ILS of at least 25%, Schedule B: ip injections on days 1, 5 and 9 after implant; for Dose/Injection range found safe and effective for providing %ILS of at least 25%, Schedule C: ip injections on each of days 1-9 after implant; for Dose/Injection range found safe and effective for providing %ILS of at least 25%, Schedule A: single ip injection on day 1 after implant
Method: Schedule A consisted of a single injection administered ip on the first day following implant of the L1210 leukemia cells. (i.e., 24 hours after implant). Schedule B consisted of a three-injection regimen, with one injection being administered ip on each of the first, fifth and ninth days following implant. Schedule C consisted of a nine-injection regimen, with one injection being administered ip on each of the first through ninth days following implant.
In this set of tests, the mice received 10^5 L1210 leukemia cells by ip injection, and were divided into groups of 10, including a control group.

cancer = details: in vivo; cited from earlier work
L1210 leukemia [3] = experiment: antineoplastic activity of hydroxonitrato complex against L1210 leukemia in mice (10^6 L1210 cells ip); type: in vivo; details: Schedule A
Method: The mice received by ip injection 10^6 L1210 leukemia cells, which produces a somewhat more advance stage of the disease after 24 hours than is obtained upon using 10^5 cells as described previously. The mice were then divided into groups of six, including a control group. […] The highest %ILS value obtained was 144 at a dose level of 10 mg/kg.

L1210 leukemia [4] = experiment: combination chemotherapy against L1210 leukemia in mice (10^6 L1210 cells ip, schedule A); type: in vivo; details: Yoshi-864 and cyclophosphamide 75 mg/kg each; for 60-Day Survivors: out of 10, dichloro complex 2.5 mg/kg; for % ILS: dichloro complex 2.5 mg/kg
Excerpt: The significance of this test system in evaluating potential antineoplastic agents and the test protocol therefor, are described in detail by Geran et al, "Protocols for Screening Chemical Agents and Natural Products Against Animal Tumors and Other Biological Systems" (Third Edition), Cancer Chemotherapy Reports, Part 3, Volume 3, No. 2, Pages 1-103, September 1972. Briefly, the test procedure involves implanting L1210 leukemia cells into mice by intraperitoneal (i.p.) injection, beginning i.p. treatment with the test drug 24 hours after implant, and determining the antineoplastic activity of the test drug at optimum dose levels and schedules of administration as the percent increase in life span (%ILS) of the treated mice over the untreated control mice.
In this set of tests, the mice received by ip injection 10^6 L1210 leukemia cells, which produces a somewhat more advanced stage of the disease after 24 hours than is obtained upon using 10^5 cells as described in the previous set of tests. The mice were then divided into groups of ten, including a control group, and all mice within the same group were given the same treatment. Treatment was administered ip employing the A schedule of administration. […] The treatments tested were each of the three treating agents by themselves and the dichloro complex in combination with each of the other two treating agents. The resulting %ILS values and the number of mice (out of the group of 10) which survived sixty days following implant, are set forth in Table III.

Sarcoma 180 = details: Cleare et al 1973; cited from earlier work
[5] = tested on: ADJ/PC6A plasma cell tumor; details: in comparison with cis-dichlorodiammineplatinum (II); Connors et al 1972; cited from earlier work
L1210 leukemia [6] = details: Gale et al 1974; cited from earlier work
[7] = highest %ILS regardless of schedule or dose level
[8] = out of 10, dinitrato complex 3 mg/kg
[9] = hydroxymalonato complex 30 mg/kg
[10] = out of 10, hydroxymalonato complex 30 mg/kg
[11] = out of 10, malonato complex 15 mg/kg

NC1CCCCC1N.O=S(=O)([O-])[O-].[Pt+2] (centres unmarked) [Sulfato complex, sulfato (1,2-diaminocyclohexane) platinum (II)]
60-day Survivors (L1210 leukemia [1]): 0 mice | % ILS (L1210 leukemia [1]; sulfato complex 4 mg/kg): 119% | % ILS (L1210 leukemia [2]; Schedule A, 5.0 mg/kg/injection ip): 116% | % ILS (L1210 leukemia [2]; Schedule B, 3.33 mg/kg/injection ip): 285% | % ILS (L1210 leukemia [2]; Schedule C, 0.6 mg/kg/injection ip): 239% | level of antineoplastic activity greater than that achieved with the dichloro complex (L1210 leukemia [2]; [7]): 86% | Dose/Injection range found safe and effective for providing %ILS of at least 25%, Schedule B (L1210 leukemia [2]): 0.2 to 5 mg/kg | Dose/Injection range found safe and effective for providing %ILS of at least 25%, Schedule C (L1210 leukemia [2]): 0.1 to 1.2 mg/kg | Dose/Injection range found safe and effective for providing %ILS of at least 25%, Schedule A (L1210 leukemia [2]): 0.5 to 10 mg/kg

NC1CCCCC1N.O=[N+]([O-])[O-].O=[N+]([O-])[O-].[Pt+2] (centres unmarked) [Dinitrato complex, dinitrato (1,2-diaminocyclohexane) platinum (II)]
% ILS (L1210 leukemia [1]; dinitrato complex 3 mg/kg): 110% | 60-Day Survivors (L1210 leukemia [1]; [8]): 0 mice | % ILS (L1210 leukemia [2]; Schedule A, 4.0 mg/kg/injection ip): 113% | % ILS (L1210 leukemia [2]; Schedule B, 4.0 mg/kg/injection ip): 247% | % ILS (L1210 leukemia [2]; Schedule C, 0.5 mg/kg/injection ip): 281% | level of antineoplastic activity greater than that achieved with the dichloro complex (L1210 leukemia [2]; [7]): 83% | Dose/Injection range found safe and effective for providing %ILS of at least 25%, Schedule B (L1210 leukemia [2]): 0.25 to 4 mg/kg | Dose/Injection range found safe and effective for providing %ILS of at least 25%, Schedule C (L1210 leukemia [2]): 0.05 to 2 mg/kg | Dose/Injection range found safe and effective for providing %ILS of at least 25%, Schedule A (L1210 leukemia [2]): 0.5 to 8 mg/kg

N.N.[Cl][Pt][Cl] [cis-dichlorodiammineplatinum (II)]
therapeutic index (in words) (cancer): rather low therapeutic index

hydroxymalonato (1,2-diaminocyclohexane) platinum (II) [Hydroxymalonato complex]
% ILS (L1210 leukemia [1]; [9]): 118% | 60-Day Survivors (L1210 leukemia [1]; [10]): 0 mice | water solubility: 1500 µg/mL | % ILS (L1210 leukemia [2]; Schedule A, 75.0 mg/kg/injection ip): 97% | % ILS (L1210 leukemia [2]; Schedule B, 37.5 mg/kg/injection ip): 162% | level of antineoplastic activity greater than that achieved with the dichloro complex (L1210 leukemia [2]; [7]): 111% | level of antineoplastic activity greater than that achieved with the malonato complex (L1210 leukemia [2]; [7]): 19% | potency against L1210 leukemia relative to malonato complex (in words) (L1210 leukemia [2]; in comparison with malonato complex): even greater potency | Dose/Injection range found safe and effective for providing %ILS of at least 25%, Schedule B (L1210 leukemia [2]): 5 to 37.5 mg/kg | Dose/Injection range found safe and effective for providing %ILS of at least 25%, Schedule C (L1210 leukemia [2]): 1 to 15 mg/kg | Dose/Injection range found safe and effective for providing %ILS of at least 25%, Schedule A (L1210 leukemia [2]): 2 to 150 mg/kg

NC1CCCCC1N.O=[N+]([O-])[O-].[OH-].[Pt+2] (centres unmarked) [Hydroxonitrato complex, hydroxonitrato (1,2-diaminocyclohexane) platinum (II)]
% ILS (L1210 leukemia [3]; 10 mg/kg ip, 10^6 cells): 144% | greater %ILS value than dichloro complex (L1210 leukemia [3]; 10^6 cells vs dichloro complex at 10^5 cells): 26% | Dose/Injection range found safe and effective for providing %ILS of at least 25%, Schedule B (L1210 leukemia [2]): 1 to 5 mg/kg | Dose/Injection range found safe and effective for providing %ILS of at least 25%, Schedule C (L1210 leukemia [2]): 0.3 to 1.25 mg/kg | Dose/Injection range found safe and effective for providing %ILS of at least 25%, Schedule A (L1210 leukemia [2]): 2.5 to 15 mg/kg

O=P1(N(CCCl)CCCl)NCCCO1 (centres unmarked) [Cyclophosphamide, cyclophosphamide]
% ILS (L1210 leukemia [1]; dichloro complex 2.5 mg/kg): 79% | % ILS (L1210 leukemia [1]; dinitrato complex 3 mg/kg): 105% | % ILS (L1210 leukemia [1]; [9]): 107% | % ILS (L1210 leukemia [1]; malonato complex 15 mg/kg): 118% | 60-Day Survivors (L1210 leukemia [1]; [8]): 0 mice | 60-Day Survivors (L1210 leukemia [1]; [10]): 0 mice | 60-Day Survivors (L1210 leukemia [1]; [11]): 0 mice | 60-day Survivors (L1210 leukemia [1]): 0 mice | % ILS (L1210 leukemia [1]; sulfato complex 4 mg/kg): 97% | 60-Day Survivors (L1210 leukemia [4]): 0 mice

CS(=O)(=O)OCCCNCCCOS(C)(=O)=O [Yoshi-864, 1-propanol, 3,3'-iminodi-,dimethanesulfonate (ester) hydrochloride]
% ILS (L1210 leukemia [1]; dinitrato complex 3 mg/kg): 116% | % ILS (L1210 leukemia [1]; [9]): 117% | % ILS (L1210 leukemia [1]; malonato complex 15 mg/kg): 112% | 60-Day Survivors (L1210 leukemia [1]; [8]): 0 mice | 60-Day Survivors (L1210 leukemia [1]; [10]): 0 mice | 60-Day Survivors (L1210 leukemia [1]; [11]): 0 mice | 60-day Survivors (L1210 leukemia [1]): 0 mice | % ILS (L1210 leukemia [1]; sulfato complex 4 mg/kg): 95% | % ILS (L1210 leukemia [4]): 81% | 60-Day Survivors (L1210 leukemia [4]): 0 mice

NC1CCCCC1N.O=C([O-])CC(=O)[O-].[Pt+2] (centres unmarked) [Malonato complex, malonato (1,2-diaminocyclohexane) platinum (II)]
% ILS (L1210 leukemia [1]; malonato complex 15 mg/kg): 80% | 60-Day Survivors (L1210 leukemia [1]; [11]): 0 mice | antitumor activity against Sarcoma 180 (in words) (Sarcoma 180): only marginal antitumor activity | % ILS (L1210 leukemia [2]; Schedule A, 2.5 mg/kg/injection ip): 258% | % ILS (L1210 leukemia [2]; Schedule A, 40.0 mg/kg/injection ip): 271% | % ILS (L1210 leukemia [2]; Schedule B, 40.0 mg/kg/injection ip): 157% | % ILS (L1210 leukemia [2]; Schedule C, 10.0 mg/kg/injection ip): 219% | level of antineoplastic activity greater than that achieved with the dichloro complex (L1210 leukemia [2]; [7]): 77% | Dose/Injection range found safe and effective for providing %ILS of at least 25%, Schedule B (L1210 leukemia [2]): 10 to 40 mg/kg | Dose/Injection range found safe and effective for providing %ILS of at least 25%, Schedule C (L1210 leukemia [2]): 5 to 20 mg/kg | Dose/Injection range found safe and effective for providing %ILS of at least 25%, Schedule A (L1210 leukemia [2]): 2.5 to 160 mg/kg

NC1CCCCC1N.[Cl][Pt][Cl] (centres unmarked) [Dichloro complex, dichloro (1,2-diaminocyclohexane) platinum (II)]
ID50 (in words) [5]: quite similar to those of cis-dichlorodiammineplatinum (II) | LD50 (in words) [5]: quite similar to those of cis-dichlorodiammineplatinum (II) | antitumor activity against Sarcoma 180 (in words) (Sarcoma 180): only marginal antitumor activity | % ILS (L1210 leukemia [4]): 73% | 60-Day Survivors (L1210 leukemia [4]): 0 mice | combination with cyclophosphamide (in words) (L1210 leukemia [6]): combined synergistically | effectiveness against L1210 leukemia (in words) (L1210 leukemia [6]): highly effective | increase in mean survival time in comparison with cis-dichlorodiammineplatinum (II) (L1210 leukemia [6]): up to 54% | % ILS (L1210 leukemia [2]; Schedule A, 6.25 mg/kg/injection ip): 114% | % ILS (L1210 leukemia [2]; Schedule B, 8.0 mg/kg/injection ip): 113% | % ILS (L1210 leukemia [2]; Schedule C, 2.0 mg/kg/injection ip): 153%
